Entries after “also recorded” stand apart in the source; their conditions may differ.

Data set [1] concerns ampicillin-resistant E. coli. The class given is cell-based. Particulars: for growth of drug-resistant E. coli in presence of ampicillin: antisense oligomer plus 300 μg/mL ampicillin. How it is done: pAKgfp1 plasmid was obtained from Addgene for TEM-1 β-lactamase resistance gene, bla (43). The plasmid was cloned into chemically competent Zymo DH5a E. coli (Expressys). Untransformed Zymo DH5a was used as a control strain for β-lactamase activity assays. Liquid cultures were grown in 2% LB, incubated at 37° C. and shaken at 225 rpm. Solid cultures were grown on 2% LB broth, 1.5% agar at 37° C. Ampicillin sodium salt (Sigma Aldrich) was used for selection at a concentration of 300 μg/mL for MIC and CFU analysis. Optical density measurements were taken using a Tecan GENios at 562 nm with a bandwidth of 35 nm. All bacterial freezer stocks were stored in 40% glycerol at −80° C.

Another data set deals with β-lactamase. The settings on record: 5 μM α-TSS, 25 μM α-RBS, 25 μM α-YUNR; absence of ampicillin. The procedure:
Fluorocillin™ Green 495/525 β-lactamase substrate soluble product (Life Technologies) was used at a concentration of 2.2 μM as a β-lactamase substrate and measured using a Tecan GENios microplate reader in black flat bottom 96 well plate at 485/535 nm with a bandwidth of 35 nm. Three biological replicates were grown from colonies for 12 hours liquid media in the presence of the respective antisense agents, diluted 1:10 into liquid media and Fluorocillin green, and monitored in the Tecan GENios for 5 hr at 37° C. measuring every 2 min. The slope of fluorescence measured was used as a measure of β-lactamase activity.
Using quantitative real-time polymerase chain reaction (qPCR), expression levels of the bla gene in presence of the three antisense agents were measured. Studies were carried out with 5 μM α-TSS, 25 μM α-RBS, and 25 μM α-YUNR in the absence of ampicillin.

In the next data set the test system is CRE E. coli. Kind of data set: Growth of clinical strain CRE E. coli. The class given is cell-based, Escherichia coli. Particulars: 10 μM. How it is done: (§1) MG1655 E. coli cultures were started from individual colonies from 2% LB and 1.5% agar into M9 media. They were diluted 1:10,000 from overnight culture into fresh M9 with respective treatment and grown at 37° C. with 225 rpm shaking. Clinical strains were started from individual colonies grown on cation adjusted Mueller Hinton Broth with 1.5% agar into liquid CAMHB. These were diluted 1:10,000 into CAMHB medium with respective treatment and grown at 37° C. with 225 rpm shaking. Optical density measurements were taking using a Tecan GENios at 562 nm with a bandwidth of 35 nm. Lag time was calculated using Growth Rates Made Easy (Hall et al. Mol. Biol. Evol. 31(1):232-238).
(§2) MDR E. coli was inhibited by four of the six oligomers tested (α-folC, α-ffh, α-lexA, and α-rpsD), extended-spectrum beta-lactamase (ESBL) K. pneumoniae was inhibited by two of the antisense oligomers (α-fnrS and α-rpsD), and New Delhi metallo-β-lactamase (NDM-1) K. pneumoniae was inhibited by one of the oligomers tested (α-rpsD) (FIGS. 15-16).

Data set [2] relates to MG1655 E. coli. Kind of data set: Growth (optical density, lag time) of MG1655. The data set is classed as cell-based. The settings on record: 10 μM antisense inhibitor; for growth of MG1655 E. coli cultures: 24 h. The procedure: as §1, with “31(1):232-238). […]” for “31(1):232-238).”
Data set [3] relates to MDR Salmonella typhimurium. Kind of data set: Growth of clinical strain MDR S. typhimurium. The data set is classed as cell-based. Particulars: 10 μM. How it is done:
as §1, §2

In another data set the test system is MDR E. coli. Kind of data set: Growth of clinical strain MDR E. coli. The class given is cell-based. Particulars: 10 μM. How it is done: as §1, §2
The test system of data set [4] is MG1655 E. coli. Nature of the data set: Colony forming unit analysis of MG1655. The data set is classed as cell-based. The settings on record: 10 μM, six and eight hours. From the text:
The effect of α-lexA, α-fnrS, and α-rpsD on cell viability using a colony forming unit analysis was then determine.

Data set [5] relates to ampicillin-resistant E. coli. The class given is cell-based. The settings on record: no α-TSS (no treatment). The procedure:
Three biological replicates were selected from colonies and pretreated for 16 hr with respective α-TSS concentration in liquid media. After pretreatment, the cultures were diluted 1:100,000 into liquid media with respective concentration of ampicillin and α-TSS and allowed to grow with shaking at 37° C. for 24 hr. The final OD at 562 nm at 24 hr was used for data analysis.
Data fitting analysis was performed in Origin Pro 6.1. Data was fit to a sigmoidal/decay Boltzman function.
The degree of re-sensitization exerted by α-TSS in presence of varying concentrations of ampicillin above and below the MIC determined for α-TSS was then evaluated.

A further data set has as its system bla mRNA. Nature of the data set: bla mRNA expression by qPCR. The data set is classed as cell-based, E. coli. The settings on record: 5 μM α-TSS, 25 μM α-RBS, 25 μM α-YUNR; absence of ampicillin. How it is done: Three biological replicates were used for bla expression analysis. Cultures were pretreated overnight in respective PNA and liquid media in the absence of ampicillin and collected for RNA at 16 hr.
50 μL of the respective culture was added to 100 μL of Bacteria RNAprotect (Qiagen) and incubated at room temperature for 5 min. The cells were then pelleted via centrifugation for 3 min at 10,000 rpm, the supernatant removed, and samples were flash frozen in an ethanol dry ice bath and stored at −80° C. Precautions were taken to protect RNA from RNases using RNaseZap (Life Technologies). RNA was extracted from frozen cell pellets using GeneJET RNA purification kit (Thermo Scientific) and 350-600 ng was treated with Turbo DNA-free (Ambion). 50 ng cDNA was synthesized using Maxima Universal First Stand cDNA synthesis kit (Thermo Scientific). 1.5 ng of cDNA was used for qPCR with Maxima SYBR Green qPCR master mix with ROX normalization (Thermo Scientific) using Illumina Eco qPCR system. Transcript levels were analyzed using the ΔCq method with respect to moderately expressed housekeeping gene cysG (43). Transcript levels were further analyzed for the mutant populations using the ΔΔCq method with respect to the no treatment populations.

In a further data set the test system is ESBL K. pneumoniae. Kind of data set: Growth of clinical strain ESBL K. pneumoniae. The data set is classed as cell-based, Klebsiella pneumoniae. The settings on record: 10 μM. How it is done: as §1, §2

For “KFFKFFKFFK-O-gaataagggcga (antisense GAATAAGGGCGA; PNA, (KFF)3K peptide via O-linker, chemistry not fully specified) [α-YUNR]”, the “growth of drug-resistant E. coli in presence of ampicillin” value in data set [1] was “no impact on cell growth”. Further, the β-lactamase activity entry with β-lactamase was “no impact on protein activity”.

Turning to “KFFKFFKFFK-O-ttcgacatcaac (antisense TTCGACATCAAC; PNA, (KFF)3K peptide via O-linker, chemistry not fully specified) [α-gyrB, 12-mer antisense PNA centered on start codon of gyrB, O-linker to (KFF)3K]”, the “growth inhibition of CRE E. coli” value with CRE E. coli was “inhibited”. Moreover, the lag time entry in the data set with MG1655 E. coli [2] is listed as “significantly increased lag time”. Further, in data set [3], the “growth inhibition of MDR S. typhimurium” value was “inhibited”.

Regarding “KFFKFFKFFK -O-gctttcattccg (antisense GCTTTCATTCCG; all peptide nucleic acid (PNA); (KFF)3K cell-penetrating peptide joined to the N-terminus through an O-linker) [α-lexA, 12-mer antisense PNA centered on start codon of lexA, O-linker to (KFF)3K]”, the “growth inhibition of CRE E. coli” value in the data set with CRE E. coli is given as “inhibited”. Also, in the data set with MDR E. coli, the “growth inhibition of MDR E. coli” value was “inhibited”. Further, in the data set with MG1655 E. coli [4], the “viable cells at six and eight hours” value is “prevented significant increase in viable cells; also recorded: prevents significant increases in viable MG1655 E. coli cells”. For the same compound, in the data set on MG1655 E. coli [2], the lag time result was “significantly increased lag time” and the “growth of MG1655 E. coli cultures” value is “completely inhibited; also recorded: completely prevented cell growth; also recorded: Complete inhibition”. Besides, in data set [3], the “growth inhibition of MDR S. typhimurium” value is given as “inhibited”.

With `CC1(C)S[C@@H]2[C@H](NC(=O)[C@H](N)c3ccccc3)C(=O)N2[C@H]1C(=O)O` [ampicillin, Ampicillin, reference compound], in data set [5], the “slope of the transition from resistant to sensitive (Boltzman fit)” value was −0.0051 ODmLμg^−1. Also, in data set [5] (24 hr), the “ampicillin concentration up to which growth is without inhibition” value stood at 300 µg/mL and the “ampicillin concentration where no growth was observed” value came out at 700 µg/mL.

As to “KFFKFFKFFK -O-tcaaacattgtc (antisense TCAAACATTGTC; all peptide nucleic acid (PNA); (KFF)3K cell-penetrating peptide joined to the N-terminus through an O-linker) [α-ffh, 12-mer antisense PNA centered on start codon of ffh, O-linker to (KFF)3K]”, in the data set on CRE E. coli, the “growth inhibition of CRE E. coli” value is on record as “inhibited”. Further, the “growth inhibition of MDR E. coli” value in the data set on MDR E. coli is reported as “inhibited”. For the same compound, the “growth inhibition of MDR S. typhimurium” value in data set [3] is on record as “inhibited”.

For “KFFKFFKFFK-O-cctttttcaata (antisense CCTTTTTCAATA; PNA, (KFF)3K peptide via O-linker, chemistry not fully specified) [α-RBS]”, in the data set with bla mRNA, the “bla mRNA expression” value is recorded as “did not affect bla transcript levels; also recorded: did not significantly reduce bla expression”. For the same compound, in data set [1], the “re-sensitization of drug resistant E. coli to ampicillin” value was “re-sensitized drug resistant E. coli to ampicillin; also recorded: re-sensitization of drug resistant E. coli to ampicillin; also recorded: re-sensitize” and the “growth of drug-resistant E. coli in presence of ampicillin” value was “hindered cell growth; also recorded: impact growth; also recorded: significant antibiotic effect”. Further, the “growth in absence of ampicillin (toxicity of antisense agent)” value in data set [1] (absence of ampicillin) is reported as “non-toxic effect; also recorded: No inhibition”. In addition, the “minimum inhibitory concentration (MIC)” value in data set [1] (in presence of 300 μg/mL ampicillin, after overnight pretreatment with antisense agent) is 25 µM.

With “KFFKFFKFFK -O-taatcatggtat (antisense TAATCATGGTAT; all peptide nucleic acid (PNA); (KFF)3K cell-penetrating peptide joined to the N-terminus through an O-linker) [α-folC, 12-mer antisense PNA centered on start codon of folC, O-linker to (KFF)3K]”, in the data set on CRE E. coli, the “growth inhibition of CRE E. coli” value was “inhibited”. Moreover, the “growth inhibition of MDR E. coli” value in the data set on MDR E. coli is on record as “inhibited”. Besides, the “growth inhibition of MDR S. typhimurium” value in [3] was “inhibited”.

As to “KFFKFFKFFK-O-cacctgcaagag (antisense CACCTGCAAGAG; all peptide nucleic acid (PNA); (KFF)3K cell-penetrating peptide joined to the N-terminus through an O-linker) [α-fnrS]”, the “growth inhibition of CRE E. coli” value in the data set with CRE E. coli is given as “inhibited”. For the same compound, in the data set with MG1655 E. coli [2], the lag time result is on record as “significantly increased lag time” and the “growth of MG1655 E. coli cultures” value is “completely inhibited; also recorded: completely prevented cell growth; also recorded: Complete inhibition”. In the data set with ESBL K. pneumoniae, the “growth inhibition of ESBL K. pneumoniae” value is “inhibited”. For the same compound, the “growth inhibition of MDR S. typhimurium” value in data set [3] is listed as “inhibited”.
